Experimental data: patent US10035820B2, “Compounds which inhibit neuronal exocytosis” (Lubrizol Advanced Materials, Inc., priority 2012, dated 2018)

Tested on: human neuroblastoma cell line
Test: Release of noradrenaline induced by TPA/Ionomycin in a neuroblastoma cell line, quantified by ELISA
Format: cell-based
Conditions: TPA/ION control = 100
Procedure: The induction of the release of noradrenaline with TPA (12-O-tetradecanoylphorbol-13-acetate)/Ionomycin enables direct measurement of neuronal exocytosis. For the study of the inhibitory effect of the compounds of the invention on the release of noradrenaline, cells of a human neuroblastoma cell line were pre-incubated (1×10^6 cells/well) for 60 minutes with the compound of the invention (1 μM, 10 μM, 100 μM, 500 μM or 1 mM compounds), and afterward the release of noradrenaline was induced. The release of the noradrenaline neurotransmitter was induced by an 8 minute pre-treatment with a solution of 12-O-tetradecanoylphorbol-13-acetate (TPA) 100 nM, which mobilized the intracellular vesicles which contained the neurotransmitter; followed by a 5 minute incubation with TPA/Ionomycin (100 nM/10 μM), which induced the release of the neurotransmitter contained in these vesicles. […] For this, absorbance at 405 nm was measured in Thermo Scientific Multiskan Ascent equipment.
The blocking of the SNARE complex by the compounds of the invention lead to an inhibition of neuronal exocytosis and therefore, a decrease in the levels of released noradrenaline (Table 6).

Substance	% RELEASED NORADRENALINE Average (1 μM compound)	% RELEASED NORADRENALINE Average (10 μM compound)	% RELEASED NORADRENALINE Average (100 μM compound)	% RELEASED NORADRENALINE Average (500 μM compound)	% RELEASED NORADRENALINE Average (1000 μM compound)
Ac-EELKRWM-NH2 [Ac-SEQ ID NO: 116-NH2]	87.59%	83.30%	62.24%	52.82%	43.10%
Ac-ENLKRWM-NH2 [Ac-SEQ ID NO: 117-NH2]	87.99%	83.11%	70.76%	58.37%	54.64%
